# From publication PMC6697623 (2019)
# System: Corn wild type (RNA 1) (RNA, aptamer) GGCGCGAGGAAGGAGGUCUGAGGAGGUCACUGCGCC
# Assay: fluorescence titration, RNA varied
# Details: 100 mM KCl, 10 mM MgCl2; pH 7.5, 20 °C; 2.5 μM TO
smiles,measurement,value
CN1C(=Cc2cc[n+](C)c3ccccc23)Sc2ccccc21,apparent Kd,1400 nM
